Values quoted from earlier work in patent US9782362B2, “Uses of compositions containing a roasted extract and xanthohumol” (TA-XAN AG, priority 2012, dated 2017).
Where two headings read alike, the source gives them in different places.

Tests used:
[1] = tested on: inflammation; conditions: oral 4-6 mg/kg per day for 60 days in drinking water
[2] = tested on: angiogenesis; conditions: approx. 1 mg/kg per day three days per os; 4-6 mg/kg per day 60 days drinking water; or 1000 mg/kg subcutaneously
[3] = 100 mg/kg/day in drinking water for four weeks, then mated
[4] = tested on: Diacylglycerol acetyltransferase (DGAT); conditions: in vitro
[5] = tested on: Human breast tumor cells (MX-1 cells); conditions: daily subcutaneous 1000 mg/kg
[6] = tested on: bacterial culture; conditions: depending on doses ranging between 0.01 to 10 μM
[7] = tested on: human Kaposi's sarcoma (KS-IMM) cells; conditions: approx. 1.2 mg/kg for 23 days
[8] = tested on: bone-resorbing cells (osteoclasts); conditions: in vitro
[9] = tested on: Human breast tumor cells (MXF7 cells); conditions: daily dose of 4-6 mg/kg in the drinking water; not validated statistically at the 95% level
[10] = direct chemical interaction
[11] = tested on: Estrogen; conditions: oral three×100 mg/kg over three days
[12] = up to 100 mg/kg/day per os, 4 weeks
[13] = tested on: Cells in culture or rat liver; conditions: depending on doses ranging between 0.01 to 10 μM
[14] = tested on: apoptosis; conditions: 4-6 mg/kg per day for 60 days in the drinking water
[15] = rat
[16] = 4 weeks, female C3H-mice
[17] = mice

COc1cc(O)c(CC=C(C)C)c(O)c1C(=O)/C=C/c1ccc(O)cc1 [xanthohumol]
toxic effects (daily for 4 weeks: 100 mg/kg drinking water, 500 mg/kg in feed, 1000 mg/kg pharyngeal tube): no toxic effects whatsoever could be determined | weight of the liver (high-dose groups (500 mg/kg/day and 1000 mg/kg/day), due to breakdown of glycogen): reduction in the weight of the liver | effect on inflammation [1]: inhibitive effect on inflammation was also established in vivo | anti-angiogenetic action [2]: anti-angiogenetic action | influence on fertility or lactation [3]: Neither the pre-treatment of the female animals nor of the males had any influence | DGAT inhibition [4]: inhibition of this enzyme | growth of the tumor inhibited ([5]; in one week): 46% | growth of the tumor inhibited ([5]; in two weeks): 83% | inhibition of mutagenic damage [6]: up to 100% | growth of the tumor inhibited [7]: 68% | inhibition of the resorption of bone ([8]; 1 μM): 35% | inhibition of the resorption of bone ([8]; 10 μM): 94% | growth of the tumor inhibited [9]: 35% | interception of DPPH radical [10]: not able to intercept | anti-estrogen action [11]: possible to detect anti-estrogen action | toxicity [12]: no indication of toxicity | inhibition of DNA damage [13]: up to 100% | induction of apoptosis [14]: could be detected | absorption following oral application [15]: poorly absorbed | state in the excrement ([15]; oral): largely unchanged | development of weight, appearance of organs, haematologically clinical parameters, liver enzyme values, glucose metabolism ([16]; approximately 28 mg/kg/day in drinking water): uninfluenced | impact on health ([16]; drinking water 5×10^−4M ad libitum, approximately 28 mg/kg/day): no unfavorable impact | plasma glucose level [17]: reduction | triglycerides [17]: reduction
